Measurements reported in patent US20260344621A1, “CHEMICAL DISBUDDING METHOD” (WELFARE CONCEPTS LIMITED, priority 2022, published 2026).
Entries after “also recorded” stand apart in the source; their conditions may differ. Where a name gives a salt, the structure may show the parent alone. Values belong to the compound of their own block, whether it stands above or below them.

What was measured:
horn buds [1] = test: Example 2: disbudding efficacy of chloroquine diphosphate and polidocanol, 90 days observation; format: in vivo, calves; details: for Horn growth / Scurs / Success rate / No horn growth: 90 days
Protocol: (§1) A study on calves was performed to test the disbudding efficacy from the administration to horn buds of chloroquine diphosphate and polidocanol.
The chloroquine diphosphate was administered as compositions comprising chloroquine diphosphate suspended in water. The compositions were prepared by dispersing chloroquine diphosphate powder into water for injection. Immediately before administration the compositions were shaken to re-suspend the chloroquine diphosphate.
(§2) The polidocanol was administered either as undiluted polidocanol when administered at 100% concentration, or as a diluted solution with water for the 90%, 50% and 10% concentration groups.
The animals in the study were divided into multiple groups. Groups 1 and 2 were administered saline solution (0.9% sodium chloride) administered as a single dose for group 1, and as divided doses for group 2. Each divided dose comprised 5 doses of 0.1 mL administered around the horn bud.
Groups 3 and 4 were administered chloroquine diphosphate at either 100 mg/ml or 300 mg/mL, and groups 5 to 8 were administered polidocanol are different concentrations ranging from 100% to 10% w/v.

horn buds [2] = test: General conclusion on chemical disbudding agents: efficacy; format: in vivo, calves
Protocol: (§3) A study was performed to test the disbudding efficacy from the administration to horn buds of mepacrine dihydrochloride, compared to a conventional hot iron disbudding method. The mepacrine dihydrochloride was administered as compositions comprising mepacrine dihydrochloride suspended in water. The compositions were prepared by dispersing mepacrine dihydrochloride powder into water for injection. Immediately before administration the compositions were shaken to re-suspend the mepacrine dihydrochloride.
as §1
(§4) Sixteen calves (4 to 6 days old) obtained from commercial dairy farms were used in this study. The calves were randomly assigned to receive one of the four formulations (Table 3). Animals were gently restrained and the hair around the horn bud region was clipped. The formulations (0.3 to 0.5 mL) were then injected subcutaneously under the right horn bud or around the right horn bud using a McLintock syringe and needle (22G 11/64″, 0.71*4.3 mm) which delivered 0.1 mL on each injection. The left horn bud acted as control. The details of the treatment are given in the below Table 3. […] The differences in the growth rate of the right and left horn buds were determined by measuring the height of the horn buds at regular intervals. Photos of the horn buds were taken at the same time. Calves will be euthanized after 4 months by intravenous injection of pentobarbitone sodium (100 mg/kg bodyweight) for gross pathology and histopathology of horn buds.

horn-bud tissue = details: injected under the horn bud; Sutherland et al 2019; cited from earlier work
horn buds [3] = test: Example 3: growth rate of horn buds / efficacy of mepacrine and eugenol formulations; format: in vivo, calves (4 to 6 days old); details: for Height of right horn bud on 40th day / Height of right horn bud on 80th day / Horn growth rate (height of horn buds on 80th day minus height on 40th day), right horn bud: individual calf
Protocol: as §4, with “The formulations (0.3 to 0.5 mL) were then injected subcutaneously under the right horn bud or around the right horn bud using a McLintock syringe and needle (22G 11/64″, 0.71*4.3 mm) which delivered 0.1 mL on each injection.” left out

[4] = Example 3: pain related behaviors and adverse effects following injection; format: in vivo, calves (4 to 6 days old)
Protocol: as §4

[5] = Example 1: pain response and procedure time; format: in vivo, calves (bovine dairy calves, 7 days of age)
Protocol: as §3
(§5) The administration of the mepacrine dihydrochloride was performed by injecting the mepacrine dihydrochloride composition using a McLintock pre-set syringe configured to administer up to 0.5 mL. The single dose administration for groups 1 to 4 was performed by injecting the composition directly into the horn bud. The divided dose administration for groups 5 to 8 was performed by injecting the smaller doses to the area immediately around the horn bud. The animals in control group 9 were first treated with a 2% lignocaine injection as a cornual nerve block and then disbudded using a conventional hot-iron.
(§6) The animals in the study were bovine dairy calves, progressively enrolled in the study and treated at 7 days of age.
The administration procedure of disbudding by administering mepacrine was less than 1 minute for each animal, compared to 5-10 minutes for the animals disbudded with the hot-iron.

horn buds [6] = test: Example 1: disbudding efficacy of mepacrine dihydrochloride suspended in water, 90 days observation; format: in vivo, calves (bovine dairy calves, 7 days of age); details: for Horn growth / Scurs / Success rate / No horn growth: 10 animals treated, 90 days
Protocol: as §3
The animals in the study (calves) were divided into multiple groups. Groups 1 to 4 were administered a single dose of 0.5 mL of mepacrine dihydrochloride composition, with each being administered a composition with a different concentration of mepacrine dihydrochloride, ranging from 50 mg/mL to 400 mg/mL.
Groups 5 to 8 were administered a divided dose of 0.5 mL of mepacrine dihydrochloride composition, with each being administered a composition with a different concentration of mepacrine dihydrochloride, ranging from 50 mg/mL to 400 mg/mL. Each divided dose comprised 5 doses of 0.1 mL administered around the horn bud.
as §5
The left horn bud on each animal was left untreated as a control.
as §6
The success rate is based on the proportion of treated horn buds that had no subsequent horn growth or presence of a scur. A horn scur is a distorted horn that is not attached to the skull. […] The untreated horn bud on every animal developed into a horn.

horn bud = details: high concentrations injected into the horn bud; Koger 1976; cited from earlier work
[7] = prior trials; cited from earlier work
[8] = Example 2: viscosity of the polidocanol compositions (observation); format: physicochemical; details: eg. 90%
Protocol: as §2

horn bud tissue = details: as a cryogenic fluid; cited from earlier work
[9] = 100 mg/mL, single injection (0.5 mL), 3 animals treated
[10] = 300 mg/ml, single injection (0.5 mL), 4 animals treated
[11] = 50 mg/mL, multiple injections (5 × 0.1 mL)
[12] = 50 mg/mL, single injection (0.5 mL)
[13] = 100 mg/mL, multiple injections (5 × 0.1 mL)
[14] = 100 mg/mL, single injection (0.5 mL)
[15] = 200 mg/mL, multiple injections (5 × 0.1 mL)
[16] = 200 mg/mL, single injection (0.5 mL)
[17] = 400 mg/mL, multiple injections (5 × 0.1 mL)
[18] = 400 mg/mL, single injection (0.5 mL)
[19] = 50% polidocanol (0.5 mL), 4 animals treated
[20] = 90% polidocanol (0.5 mL), 4 animals treated
[21] = 100% polidocanol (0.5 mL), 1 animal treated

Compound: CCN(CC)CCCC(C)Nc1ccnc2cc(Cl)ccc12 (stereo not drawn) [Chloroquine diphosphate]
Horn growth (horn buds [1]; [9]): 2 | Scurs (horn buds [1]; [9]): 1 | Success rate (horn buds [1]; [9]): 0% | Disbudding success (in words) (horn buds [1]; 300 mg/mL): some success | Horn growth outcome (in words) (horn buds [1]; 300 mg/mL): half the animals having no horn growth at all, and the other have having only scurs forming | No horn growth (horn buds [1]; [10]): 2 | Scurs (horn buds [1]; [10]): 2 | Success rate (horn buds [1]; [10]): 50% | Function as chemical disbudding agents (horn buds [2]): effective chemical disbudding agents

Compound: C=CCc1ccc(O)c(OC)c1 [Eugenol]
Disbudding efficacy (horn-bud tissue): relatively ineffective, delaying rather preventing horn growth in many cases | Height of right horn bud on 40th day (horn buds [3]; 0.2 mL under the horn bud): (5-5) mm | Height of right horn bud on 80th day (horn buds [3]; 0.2 mL under the horn bud): (5-5) mm | Horn growth rate (height of horn buds on 80th day minus height on 40th day), right horn bud (horn buds [3]; 0.2 mL under the horn bud): 0 mm | Height of right horn bud on 40th day (horn buds [3]; 0.3 mL under the horn bud): (8-8) mm | Height of right horn bud on 80th day (horn buds [3]; 0.3 mL under the horn bud): (8-8) mm | Horn growth rate (height of horn buds on 80th day minus height on 40th day), right horn bud (horn buds [3]; 0.3 mL under the horn bud): 0 mm | Height of right horn bud on 40th day (horn buds [3]; 0.4 mL around the horn bud): 17 mm | Height of right horn bud on 80th day (horn buds [3]; 0.4 mL around the horn bud): 19 mm | Horn growth rate (height of horn buds on 80th day minus height on 40th day), right horn bud (horn buds [3]; 0.4 mL around the horn bud): 2mm | Height of right horn bud on 40th day (horn buds [3]; 0.5 mL around the horn bud): 8 mm | Height of right horn bud on 80th day (horn buds [3]; 0.5 mL around the horn bud): 10 mm | Horn growth rate (height of horn buds on 80th day minus height on 40th day), right horn bud (horn buds [3]; 0.5 mL around the horn bud): 2 mm | Height of right horn bud on 40th day (horn buds [3]; 0.5 mL under the horn bud): 14 mm | Height of right horn bud on 80th day (horn buds [3]; 0.5 mL under the horn bud): 22 mm | Horn growth rate (height of horn buds on 80th day minus height on 40th day), right horn bud (horn buds [3]; 0.5 mL under the horn bud): 8 mm | Effective (number of animals), subjective assessment of efficacy (horn buds [3]; N = 5 (aqueous mepacrine), 5 (eugenol), 2 (20:80), 3 (80:20)): 3 | Ineffective (number of animals), subjective assessment of efficacy (horn buds [3]; N = 5 (aqueous mepacrine; around the horn bud), 5 (eugenol), 3 (80:20; around the horn bud)): 2 | Ineffective, of these around the horn bud (number of animals) (horn buds [3]; eugenol, N = 5, around the horn bud): 1 | Character and course of the swelling ([4]; following the injection): painless to touch and resolved after few days | Swelling around the horn buds ([4]; following the injection): Swelling around the horn buds was observed; also recorded: Painless swelling at site of injection | Swelling and scars at the site of injection ([4]; main finding 4): slight swelling and scars at the site of injection | Scars and depression at the site of injection ([4]; site of injection): scars and depression were seen at the site of injection

Pain response ([5]; after mepacrine disbudding treatment): very little pain response
Compound: CCN(CC)CCCC(C)Nc1c2ccc(Cl)cc2nc2ccc(OC)cc12 (stereo not drawn) [Mepacrine dihydrochloride]
Discomfort and pain reactions/behaviour ([5]; during administration): very little discomfort during administration and showed no pain reactions/behaviour | Discomfort / pain activity during and after injections ([5]; during injections and after completion): discomfort during the injections and no subsequent pain activity after completion of the injections | Horn growth (horn buds [6]; [11]): 9 | Scurs (horn buds [6]; [11]): 1 | Success rate (horn buds [6]; [11]): 0% | Horn growth (horn buds [6]; [12]): 7 | No horn growth (horn buds [6]; [12]): 3 | Success rate (horn buds [6]; [12]): 30% | Horn growth (horn buds [6]; [13]): 2 | No horn growth (horn buds [6]; [13]): 5 | Scurs (horn buds [6]; [13]): 3 | Success rate (horn buds [6]; [13]): 50% | Horn growth (horn buds [6]; [14]): 7 | No horn growth (horn buds [6]; [14]): 3 | Success rate (horn buds [6]; [14]): 30% | No horn growth (horn buds [6]; [15]): 9 | Scurs (horn buds [6]; [15]): 1 | Success rate (horn buds [6]; [15]): 90% | Horn growth (horn buds [6]; [16]): 1 | No horn growth (horn buds [6]; [16]): 8 | Scurs (horn buds [6]; [16]): 1 | Success rate (horn buds [6]; [16]): 80% | Horn growth (horn buds [6]; [17]): 1 | No horn growth (horn buds [6]; [17]): 7 | Scurs (horn buds [6]; [17]): 2 | Success rate (horn buds [6]; [17]): 70% | No horn growth (horn buds [6]; [18]): 8 | Scurs (horn buds [6]; [18]): 2 | Success rate (horn buds [6]; [18]): 80% | Success rate (in words) (horn buds [6]; 0.5 mL of 200 mg/mL and 400 mg/L (so in the source), single injection and divided dose): high success rates | Success rate by concentration (in words) (horn buds [6]; 200 and 400 mg/mL vs 50 and 100 mg/mL): higher success rate in the higher concentration groups of 200 and 400 mg/mL | Advantage of splitting the dose into multiple injections (horn buds [6]; single vs multiple injections): no noticeable advantage | Function as chemical disbudding agents (horn buds [2]): effective chemical disbudding agents

Compound: [Ca+2].[Cl-].[Cl-] [calcium chloride]
Inflammation (horn bud): significant inflammation | Necrosis of the tissue (horn bud): causing necrosis of the tissue

Compound: [Na+].[OH-] [caustic soda]
Adverse effects [7]: can lead to blindness of the treated animals

Viscosity of the higher concentration compositions [8]: highly viscous
Compound: Polidocanol
No horn growth (horn buds [1]; 10% polidocanol (0.5 mL), 1 animal treated): 1 | Horn growth (horn buds [1]; [19]): 3 | Scurs (horn buds [1]; [19]): 1 | Success rate (horn buds [1]; [19]): 0% | Horn growth (horn buds [1]; [20]): 1 | No horn growth (horn buds [1]; [20]): 1 | Scurs (horn buds [1]; [20]): 2 | Success rate (horn buds [1]; [20]): 25% | Disbudding success (in words) (horn buds [1]; 100% concentration and 10% concentration): successful | No horn growth (horn buds [1]; [21]): 1 | Success rate (horn buds [1]; [21]): 100% | Disbudding success (in words) (horn buds [1]; other concentrations (90%, 50%)): less successful | Function as chemical disbudding agents (horn buds [2]): effective chemical disbudding agents

Compound: liquid nitrogen
Destruction of horn bud tissue (horn bud tissue): almost entirely ineffective
